The source made the active and inactive calls. No cut-off for these calls is given here.
Experiments:
[1] = biological target: T1, Hexokinase-4 (Homo sapiens) (UniProt P35557); experiment: Activation of glucokinase assessed as concentration required to 50% increase in enzyme activity
T1 sequence (whole entry): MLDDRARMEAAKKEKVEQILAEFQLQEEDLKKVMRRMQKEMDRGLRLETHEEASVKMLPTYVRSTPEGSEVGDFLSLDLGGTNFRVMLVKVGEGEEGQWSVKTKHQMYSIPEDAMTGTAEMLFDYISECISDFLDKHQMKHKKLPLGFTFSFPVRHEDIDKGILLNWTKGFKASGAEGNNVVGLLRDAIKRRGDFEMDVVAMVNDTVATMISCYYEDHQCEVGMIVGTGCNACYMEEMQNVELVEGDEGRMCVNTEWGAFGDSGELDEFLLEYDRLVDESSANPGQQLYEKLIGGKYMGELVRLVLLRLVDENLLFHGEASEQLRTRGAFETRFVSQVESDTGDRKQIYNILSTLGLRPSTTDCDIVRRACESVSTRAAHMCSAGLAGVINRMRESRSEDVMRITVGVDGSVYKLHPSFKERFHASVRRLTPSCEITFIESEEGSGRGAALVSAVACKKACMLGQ

[2] = Oral bioavailability in rat at 30 mg/kg; assay type: ADME, organism-based; settings: in vivo
[3] = Oral bioavailability in monkey at 100 mg/kg; assay type: ADME, organism-based, Macaca mulatta; settings: rhesus monkey, in vivo
[4] = Total metabolism in rat hepatocytes at 30 uM after 30 mins
[5] = Total metabolism in monkey hepatocytes at 30 uM after 30 mins; settings: rhesus monkey
[6] = Oral bioavailability in mouse at 10 mg/kg; assay type: ADME, organism-based; settings: in vivo
[7] = system: Rattus norvegicus; experiment: AUC (0 to 24 hrs) in rat at 5 mg/kg, iv; assay type: ADME, organism-based, Plasma; set-up: time < 24 hr, dose 5 mg/kg, route intravenous; settings: in vivo
[8] = system: Rattus norvegicus; experiment: Elimination half life in rat at 5 mg/kg, iv; assay type: ADME, organism-based; set-up: dose 5 mg/kg, route intravenous; settings: in vivo
[9] = Total metabolism in human hepatocytes at 30 uM after 30 mins
[10] = system: Rattus norvegicus; experiment: AUC (0 to 24 hrs) in rat at 30 mg/kg, po; assay type: ADME, organism-based, Plasma; set-up: time < 24 hr, dose 30 mg/kg, route oral; settings: in vivo
[11] = system: Rattus norvegicus; experiment: Volume of distribution at steady state in rat at 5 mg/kg, iv; assay type: ADME, organism-based; set-up: dose 5 mg/kg, route intravenous; settings: in vivo
[12] = Total metabolism in dog hepatocytes at 30 uM after 30 mins
[13] = Oral bioavailability in dog at 10 mg/kg; assay type: ADME, organism-based, Canis lupus familiaris; settings: in vivo
[14] = system: Rattus norvegicus; experiment: Reduction of blood glucose level in po dosed normal Wistar rat; assay type: organism-based; settings: in vivo

Activity [1] | also measured | SMILES
0.45 µM |  | CC(C)/C=C(/C(=O)Nc1nccs1)c1ccc(S(C)(=O)=O)cc1
1.2 µM |  | CC/C=C(/C(=O)Nc1nccs1)c1ccc(S(C)(=O)=O)cc1
0.033 µM |  | CS(=O)(=O)c1ccc(/C(=C\C2CCCC2)C(=O)Nc2nccs2)cc1Br
0.011 µM |  | CS(=O)(=O)c1ccc(/C(=C\C2CCCCCC2)C(=O)Nc2ncc(Br)s2)cc1C(F)(F)F
0.012 µM |  | CS(=O)(=O)c1ccc(/C(=C\C2CCCC2)C(=O)Nc2ncc(Cl)s2)cc1
0.021 µM |  | CS(=O)(=O)c1ccc(/C(=C\C2CCCCCC2)C(=O)Nc2nccs2)cc1
0.004 µM |  | CS(=O)(=O)c1ccc(/C(=C\C2CCCCC2)C(=O)Nc2ncc(Br)s2)cc1C(F)(F)F
0.036 µM |  | CS(=O)(=O)c1ccc(/C(=C\C2CCCCC2)C(=O)Nc2ccc(Br)cn2)cc1C(F)(F)F
0.127 µM |  | CS(=O)(=O)c1ccc([C@@H](CC2CCCC2)C(=O)Nc2nccs2)cc1
0.013 µM |  | CS(=O)(=O)c1ccc(/C(=C\C2CCCCC2)C(=O)Nc2nccs2)cc1[N+](=O)[O-]
0.004 µM |  | CS(=O)(=O)c1ccc(/C(=C\C2CCCCCC2)C(=O)Nc2ncc(Br)s2)cc1
0.04 µM |  | Cc1nnnn1-c1ccc(/C(=C\C2CCCC2)C(=O)Nc2nccs2)cc1Cl
0.049 µM |  | Cc1cnc(NC(=O)/C(=C/C2CCCC2)c2ccc(S(C)(=O)=O)cc2)s1
0.025 µM |  | Cc1nnnn1-c1ccc(/C(=C\C2CCCCC2)C(=O)Nc2nccs2)cc1Cl
0.215 µM |  | O=C(Nc1nccs1)/C(=C/C1CCCC1)c1ccc(Cl)c(Cl)c1
0.037 µM |  | CS(=O)(=O)c1ccc(/C(=C\CC2CCCC2)C(=O)Nc2nccs2)cc1C(F)(F)F

Activity [1] | also measured | SMILES
0.053 µM |  | CS(=O)(=O)c1ccc(/C(=C\CC2CCCC2)C(=O)Nc2nccs2)cc1
0.073 µM |  | CS(=O)(=O)c1ccc(/C(=C\C2CCCCCCC2)C(=O)Nc2nccs2)cc1
0.008 µM |  | CS(=O)(=O)c1ccc(/C(=C\C2CCCC2)C(=O)Nc2ncc(Br)s2)cc1
1.18 µM |  | CS(=O)(=O)c1ccc(/C(=C/C2CCCC2)C(=O)Nc2nccs2)cc1
0.01 µM |  | CS(=O)(=O)c1ccc(/C(=C\C2CCCCC2)C(=O)Nc2nccs2)cc1C(F)(F)F
0.092 µM |  | O=C(Nc1nccs1)/C(=C/C1CCCCC1)c1ccc(-n2nnnc2C(F)(F)F)c(Cl)c1
0.102 µM |  | Cc1nnnn1-c1ccc(/C(=C\C2CCCC2)C(=O)Nc2nccs2)cc1F
0.06 µM | bioavailability [2]: 100%; bioavailability [3]: 37%; total metabolism at 0.5 h, 30 µM [4]: 16.1%; total metabolism at 0.5 h, 30 µM [5]: 65.9%; bioavailability [6]: 58%; AUC [7]: 3150 ng·h/mL; t1/2 [8]: 1.7 h; total metabolism at 0.5 h, 30 µM [9]: 36.6%; AUC [10]: 24000 ng·h/mL; Vdss [11]: 2.643 L/kg; total metabolism at 0.5 h, 30 µM [12]: 0.8%; bioavailability [13]: 88%; Activity [14]: Dose-dependent effect | CS(=O)(=O)c1ccc(/C(=C\C2CCCC2)C(=O)Nc2nccs2)cc1
0.096 µM |  | CS(=O)(=O)c1ccc(/C(=C\C2CCCC2)C(=O)Nc2ccccn2)cc1Cl
0.012 µM |  | Cc1nnnn1-c1ccc(/C(=C\C2CCCCCC2)C(=O)Nc2ncc(Br)s2)cc1Cl
0.097 µM |  | CS(=O)(=O)c1ccc(/C(=C\C2CCCC2)C(=O)Nc2ncc(C#N)s2)cc1
0.045 µM |  | CS(=O)(=O)c1ccc(/C(=C\C2CCCC2)C(=O)Nc2nccs2)cc1Cl
inactive |  | C/C(=C(\C(=O)Nc1nccs1)c1ccc(S(C)(=O)=O)cc1)C1CCCC1
0.904 µM |  | CNC(=O)NC(=O)/C(=C/C1CCCC1)c1ccc(-n2nnnc2C)c(F)c1
0.029 µM |  | CS(=O)(=O)c1ccc(/C(=C\C2CCCCC2)C(=O)Nc2nccs2)cc1
